Data published in patent US12319640B2, “Cyclic diones as herbicidal compounds” (SYNGENTA CROP PROTECTION AG, priority 2019, dated 2025).

Assays:
Experiment in all cases: Glasshouse herbicide test, pre- and post-emergence
Format in all cases: in vivo
Lolium perenne (LOLPE) = details: 250 g/h, evaluated after 13 days, five-point scale; for percentage damage caused to the plant, LOLPE POST: post-emergence; for percentage damage caused to the plant, LOLPE PRE: pre-emergence
Method in brief: (§1)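 Spraying at 250 g/h took place either pre-emergence (one day after sowing) or post-emergence (after eight days' cultivation). Percentage damage was evaluated 13 days afterwards and binned into five classes, 1=0-19% up to 5=80-100%.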

[1] = system: Echinochloa crus-galli (ECHCG); details: 250 g/h, evaluated after 13 days, five-point scale; for percentage damage caused to the plant, ECHCG POST: post-emergence; for percentage damage caused to the plant, ECHCG PRE: pre-emergence
Method in brief: as §1

Avena fatua (AVEFA) = details: 250 g/h, evaluated after 13 days, five-point scale; for percentage damage caused to the plant, AVEFA POST: post-emergence; for percentage damage caused to the plant, AVEFA PRE: pre-emergence
Method in brief: as §1

Setaria faberi (SETFA) = details: 250 g/h, evaluated after 13 days, five-point scale; for percentage damage caused to the plant, SETFA POST: post-emergence; for percentage damage caused to the plant, SETFA PRE: pre-emergence
Method in brief: as §1

[2] = system: Alopecurus myosuroides (ALOMY); details: 250 g/h, evaluated after 13 days, five-point scale; for percentage damage caused to the plant, ALOMY POST: post-emergence; for percentage damage caused to the plant, ALOMY PRE: pre-emergence
Method in brief: as §1

CC(=O)NC1CCC2(CC1)CC(=O)C(c1c(C)cc(-c3ccc(C#N)cn3)cc1C)C(=O)C2 (stereo not shown) [Compound 2.030]
5 (5=80-100%): percentage damage caused to the plant, LOLPE POST (Lolium perenne (LOLPE)) | percentage damage caused to the plant, LOLPE PRE (Lolium perenne (LOLPE)) | percentage damage caused to the plant, ECHCG POST [1] | percentage damage caused to the plant, ECHCG PRE [1] | percentage damage caused to the plant, AVEFA POST (Avena fatua (AVEFA)) | percentage damage caused to the plant, AVEFA PRE (Avena fatua (AVEFA)) | percentage damage caused to the plant, SETFA POST (Setaria faberi (SETFA)) | percentage damage caused to the plant, SETFA PRE (Setaria faberi (SETFA)) | percentage damage caused to the plant, ALOMY POST [2]
4 (4=60-79%): percentage damage caused to the plant, ALOMY PRE [2]

CC(=O)NC1CCC2(CC1)CC(=O)C(c1c(C)cc(-c3ncc(F)cc3F)cc1C)C(=O)C2 (stereo not shown) [Compound 2.031]
5 (5=80-100%): percentage damage caused to the plant, LOLPE POST (Lolium perenne (LOLPE)) | percentage damage caused to the plant, LOLPE PRE (Lolium perenne (LOLPE)) | percentage damage caused to the plant, ECHCG POST [1] | percentage damage caused to the plant, ECHCG PRE [1] | percentage damage caused to the plant, AVEFA POST (Avena fatua (AVEFA)) | percentage damage caused to the plant, AVEFA PRE (Avena fatua (AVEFA)) | percentage damage caused to the plant, SETFA POST (Setaria faberi (SETFA)) | percentage damage caused to the plant, SETFA PRE (Setaria faberi (SETFA)) | percentage damage caused to the plant, ALOMY POST [2] | percentage damage caused to the plant, ALOMY PRE [2]

CC(=O)NC1CCC2(CC1)CC(=O)C(c1c(C)cc(-c3ccc(F)cn3)cc1C)C(=O)C2 (stereo not shown) [Compound 2.032]
5 (5=80-100%): percentage damage caused to the plant, LOLPE POST (Lolium perenne (LOLPE)) | percentage damage caused to the plant, LOLPE PRE (Lolium perenne (LOLPE)) | percentage damage caused to the plant, ECHCG POST [1] | percentage damage caused to the plant, ECHCG PRE [1] | percentage damage caused to the plant, AVEFA POST (Avena fatua (AVEFA)) | percentage damage caused to the plant, SETFA POST (Setaria faberi (SETFA)) | percentage damage caused to the plant, SETFA PRE (Setaria faberi (SETFA)) | percentage damage caused to the plant, ALOMY POST [2] | percentage damage caused to the plant, ALOMY PRE [2]
4 (4=60-79%): percentage damage caused to the plant, AVEFA PRE (Avena fatua (AVEFA))

CC#Cc1cc(C)c(C2=C(OC(=O)OC)CC3(CCC(C(=O)NC)CC3)CC2=O)c(C)c1 (stereo not shown) [Compound P1.001]
5 (5=80-100%): percentage damage caused to the plant, LOLPE POST (Lolium perenne (LOLPE)) | percentage damage caused to the plant, LOLPE PRE (Lolium perenne (LOLPE)) | percentage damage caused to the plant, ECHCG POST [1] | percentage damage caused to the plant, ECHCG PRE [1] | percentage damage caused to the plant, AVEFA POST (Avena fatua (AVEFA)) | percentage damage caused to the plant, AVEFA PRE (Avena fatua (AVEFA)) | percentage damage caused to the plant, SETFA POST (Setaria faberi (SETFA)) | percentage damage caused to the plant, SETFA PRE (Setaria faberi (SETFA)) | percentage damage caused to the plant, ALOMY POST [2] | percentage damage caused to the plant, ALOMY PRE [2]
